The target in this assay is human Nav1.7 (Homo sapiens (Human), UniProt Q15858). The experiment in a line: Nav 1.7 in vitro PatchXpress (PX) assay. Format: cell-based.

Read-outs that look alike come from different tables or passages of the source.

human Nav1.7, sequence (Q15858 whole entry): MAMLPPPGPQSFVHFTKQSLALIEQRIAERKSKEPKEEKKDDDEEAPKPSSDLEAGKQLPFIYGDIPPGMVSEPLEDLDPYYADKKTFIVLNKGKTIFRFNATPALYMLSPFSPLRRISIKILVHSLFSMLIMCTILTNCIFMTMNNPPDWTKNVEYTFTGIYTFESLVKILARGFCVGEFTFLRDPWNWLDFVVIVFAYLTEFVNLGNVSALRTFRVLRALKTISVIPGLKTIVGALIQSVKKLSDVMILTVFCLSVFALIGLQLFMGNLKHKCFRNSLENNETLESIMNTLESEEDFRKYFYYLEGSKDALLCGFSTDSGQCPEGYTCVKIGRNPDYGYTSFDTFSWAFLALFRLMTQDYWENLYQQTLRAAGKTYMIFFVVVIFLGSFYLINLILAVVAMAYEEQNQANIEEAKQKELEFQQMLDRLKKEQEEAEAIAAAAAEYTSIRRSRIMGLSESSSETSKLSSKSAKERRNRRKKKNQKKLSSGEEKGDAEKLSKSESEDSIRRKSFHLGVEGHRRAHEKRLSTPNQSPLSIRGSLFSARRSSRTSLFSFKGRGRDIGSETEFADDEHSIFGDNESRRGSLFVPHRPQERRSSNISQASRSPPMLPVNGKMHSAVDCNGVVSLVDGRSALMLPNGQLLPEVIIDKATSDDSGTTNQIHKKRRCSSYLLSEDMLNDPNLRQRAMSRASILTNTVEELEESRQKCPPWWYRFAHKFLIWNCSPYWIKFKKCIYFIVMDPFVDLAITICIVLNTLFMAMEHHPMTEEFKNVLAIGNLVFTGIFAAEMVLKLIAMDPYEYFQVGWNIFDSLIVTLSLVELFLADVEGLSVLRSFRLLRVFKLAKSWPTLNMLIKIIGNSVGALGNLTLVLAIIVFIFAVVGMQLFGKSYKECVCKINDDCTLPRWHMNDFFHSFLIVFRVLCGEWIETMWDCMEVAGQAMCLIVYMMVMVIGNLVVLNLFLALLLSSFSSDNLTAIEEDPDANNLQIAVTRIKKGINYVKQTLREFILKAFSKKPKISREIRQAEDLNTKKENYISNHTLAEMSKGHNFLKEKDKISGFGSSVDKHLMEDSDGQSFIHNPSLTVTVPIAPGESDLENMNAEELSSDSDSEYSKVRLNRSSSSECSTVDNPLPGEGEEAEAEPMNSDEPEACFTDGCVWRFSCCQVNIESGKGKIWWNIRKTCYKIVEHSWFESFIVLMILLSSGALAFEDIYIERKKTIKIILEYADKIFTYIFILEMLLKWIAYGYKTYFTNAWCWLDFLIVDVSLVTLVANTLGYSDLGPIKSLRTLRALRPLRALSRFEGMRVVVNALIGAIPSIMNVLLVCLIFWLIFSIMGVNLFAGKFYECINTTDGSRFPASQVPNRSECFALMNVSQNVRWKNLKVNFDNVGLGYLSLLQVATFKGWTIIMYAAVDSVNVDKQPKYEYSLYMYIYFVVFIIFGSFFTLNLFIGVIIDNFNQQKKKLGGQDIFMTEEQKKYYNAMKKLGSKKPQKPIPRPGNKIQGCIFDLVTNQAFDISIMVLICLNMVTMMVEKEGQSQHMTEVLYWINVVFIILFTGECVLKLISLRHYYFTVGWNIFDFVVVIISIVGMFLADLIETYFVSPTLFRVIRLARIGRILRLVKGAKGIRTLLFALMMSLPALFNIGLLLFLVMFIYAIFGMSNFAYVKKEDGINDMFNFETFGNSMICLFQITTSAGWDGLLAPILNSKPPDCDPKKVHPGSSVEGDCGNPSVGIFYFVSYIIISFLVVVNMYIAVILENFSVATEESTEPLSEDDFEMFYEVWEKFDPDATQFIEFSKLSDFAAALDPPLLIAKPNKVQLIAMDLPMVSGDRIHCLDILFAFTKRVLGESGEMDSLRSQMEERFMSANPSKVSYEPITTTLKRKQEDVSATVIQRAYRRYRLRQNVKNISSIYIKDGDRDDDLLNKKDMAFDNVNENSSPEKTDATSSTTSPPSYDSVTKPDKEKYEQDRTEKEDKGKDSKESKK

The term IC50 denotes the midpoint of a concentration-inhibition curve. Low readings indicate inhibition by little substance, high ones a need for much substance. `COc1cc(C(=O)NS(C)(=O)=O)ccc1-c1cnc(Oc2cccc(Cl)c2C)c(Cl)c1` [Example 579, 4-(5-chloro-6-(3-chloro-2-methylphenoxy)-3-pyridinyl)-3-methoxy-N-(methylsulfonyl)benzamide] returned an IC50 of 48.6 nM.
Compound `CCc1ccc(-c2cc(F)c(C(=O)NS(C)(=O)=O)cc2C)cc1Cl` [Example 814, 3′-chloro-4′-ethyl-5-fluoro-2-methyl-N-(methylsulfonyl)-4-biphenylcarboxamide] yielded an IC50 (in-vitro Nav 1.7 PX data) of 381 nM.
Same read-out and setting: the value for `COc1cc(C(=O)NS(C)(=O)=O)ccc1-c1cnc(COc2ccc(C#N)cc2)c(Cl)c1` [Example 819, 4-(5-Chloro-6-((4-Cyanophenoxy)Methyl)-Pyridin-3-yl)-3-Methoxy-N-(Methylsulfonyl)Benzamide] was 6560 nM; that for `COc1cc(C(=O)NS(C)(=O)=O)c(F)cc1-c1cnc(Oc2c(Cl)ccc(C)c2F)c(Cl)c1` [Example 762, 4-(5-chloro-6-(6-chloro-2-fluoro-3-methylphenoxy)-3-pyridinyl)-2-fluoro-5-methoxy-N-(methylsulfonyl)benzamide] was 75.2 nM.
`CS(=O)(=O)NC(=O)c1cc(F)c(-c2cnc(Oc3c(Cl)cc(F)cc3Cl)c(Cl)c2)cc1F` [Example 572, 4-(5-chloro-6-(2,6-dichloro-4-fluorophenoxy)-3-pyridinyl)-2,5-difluoro-N-(methylsulfonyl)benzamide] gave an IC50 of 57.6 nM. In other words, the double-digit nanomolar range.
Take `COc1cc(C(=O)NS(C)(=O)=O)c(F)cc1-c1cnc(Oc2ccc(F)cc2F)c(Cl)c1` [Example 742, 4-(5-chloro-6-(2,4-difluorophenoxy)-3-pyridinyl)-2-fluoro-5-methoxy-N-(methylsulfonyl)benzamide]: the IC50 (in-vitro Nav 1.7 PX data) was 94 nM.
The same measure, in the same setting: the value for `Cc1cc(C(=O)NS(C)(=O)=O)c(F)cc1-c1cnc(NC(C)(C)C)c(Cl)c1` [Example 815, 4-(6-(tert-butylamino)-5-chloro-3-pyridinyl)-2-fluoro-5-methyl-N-(methylsulfonyl)benzamide] was 231 nM; that for `Cc1cc(Cl)cc(Cl)c1Oc1ncc(-c2ccc(C(=O)NS(C)(=O)=O)cc2Cl)cc1Cl` [Example 776, 3-chloro-4-(5-chloro-6-(2,4-dichloro-6-methylphenoxy)-3-pyridinyl)-N-(methylsulfonyl)benzamide] was 34.5 nM; that for `COc1cc(C(=O)NS(C)(=O)=O)c(F)cc1-c1cnc(Sc2cc(C)cc(C)c2)c(Cl)c1` [Example 729, 4-(5-chloro-6-((3,5-dimethylphenyl)sulfanyl)-3-pyridinyl)-2-fluoro-5-methoxy-N-(methylsulfonyl)benzamide] was 69.5 nM.
Turning to `COc1cc(C(=O)NS(C)(=O)=O)c(F)cc1-c1cnc(Oc2c(F)ccc(C)c2F)c(Cl)c1` [Example 759, 4-(5-chloro-6-(2,6-difluoro-3-methylphenoxy)-3-pyridinyl)-2-fluoro-5-methoxy-N-(methylsulfonyl)benzamide], the IC50 (in-vitro Nav 1.7 PX data) was determined as 95.4 nM.
Still for that read-out and setting: the value for `CCS(=O)(=O)NC(=O)c1ccc(-c2cnc(OC3CCC3)c(Cl)c2)c(OC)c1` [Example 790, 4-(5-chloro-6-(cyclobutyloxy)-3-pyridinyl)-N-(ethylsulfonyl)-3-methoxybenzamide] was 123 nM; that for `COc1cc(C(=O)NS(C)(=O)=O)c(F)cc1-c1cnc(Oc2ccc(Cl)cc2Cl)c(Cl)c1` [Example 738, 4-(5-chloro-6-(2,4-dichlorophenoxy)-3-pyridinyl)-2-fluoro-5-methoxy-N-(methylsulfonyl)benzamide] was 37 nM.
The same measure, in the same setting: the value for `COc1cc(C(=O)NS(C)(=O)=O)c(F)cc1-c1cnc(Oc2cc(F)ccc2C)c(Cl)c1` [Example 743, 4-(5-chloro-6-(5-fluoro-2-methylphenoxy)-3-pyridinyl)-2-fluoro-5-methoxy-N-(methylsulfonyl)benzamide] was 96.2 nM.
`CCC(CC)Oc1ncc(-c2cc(F)c(C(=O)NS(C)(=O)=O)cc2Cl)cc1Cl` [Example 601, 5-chloro-4-(5-chloro-6-(1-ethylpropoxy)-3-pyridinyl)-2-fluoro-N-(methylsulfonyl)benzamide] gave an IC50 of 75.4 nM. This lies in the double-digit nanomolar range.
On the same count and under the same terms, the value for `COc1cc(C(=O)NS(C)(=O)=O)ccc1-c1cnc(Oc2ccc(Cl)c(C(F)(F)F)c2)c(Cl)c1` [Example 370, 4-(5-chloro-6-(4-chloro-3-(trifluoromethyl)phenoxy)-3-pyridinyl)-3-methoxy-N-(methylsulfonyl)benzamide] was 57 nM.
In turn, `COc1cc(C(=O)NS(C)(=O)=O)c(F)cc1-c1cnc(N(C)C2CCC2)c(Cl)c1` [Example 697, 4-(5-chloro-6-(cyclobutyl(methyl)amino)-3-pyridinyl)-2-fluoro-5-methoxy-N-(methylsulfonyl)benzamide] had an IC50 of 146 nM.
The compound `Cc1cc(C(=O)NS(C)(=O)=O)c(F)cc1-c1ccc(Cl)c(C(F)(F)F)c1` [Example 806, 4′-Chloro-5-Fluoro-2-Methyl-N-(Methylsulfonyl)-3′-(Trifluoromethyl)-4-Biphenylcarboxamide] came in with an IC50 (in-vitro Nav 1.7 PX data) of 618 nM.
Still for that read-out and setting: the value for `COc1cc(C(=O)NS(C)(=O)=O)c(F)cc1-c1cnc(Oc2ccc(Cl)c(Cl)c2)c(Cl)c1` [Example 755, 4-(5-chloro-6-(3,4-dichlorophenoxy)-3-pyridinyl)-2-fluoro-5-methoxy-N-(methylsulfonyl)benzamide] was 51.5 nM.
In turn, `Cc1ccc(Cl)cc1Oc1ncc(-c2cc(F)c(C(=O)NS(C)(=O)=O)cc2F)cc1Cl` [Example 571, 4-(5-chloro-6-(5-chloro-2-methylphenoxy)-3-pyridinyl)-2,5-difluoro-N-(methylsulfonyl)benzamide] yielded an IC50 of 99.2 nM.
Compound `Cc1cc(C(=O)NS(C)(=O)=O)c(F)cc1-c1cnc(Oc2c(F)ccc(Cl)c2F)c(Cl)c1` [Example 625, 4-(5-chloro-6-(3-chloro-2,6-difluorophenoxy)-3-pyridinyl)-2-fluoro-5-methyl-N-(methylsulfonyl)benzamide] returned an IC50 of 83.7 nM.
With `COc1cc(C(=O)NS(C)(=O)=O)c(F)cc1-c1cnc(O[C@H]2C[C@H](C)C2)c(Cl)c1` [Example 735, 4-(5-chloro-6-((trans-3-methylcyclobutyl)oxy)-3-pyridinyl)-2-fluoro-5-methoxy-N-(methylsulfonyl)benzamide], the midpoint of inhibition (in-vitro Nav 1.7 PX data), the IC50, lay at 59.1 nM.
Regarding `CC[C@@H](Oc1ncc(-c2cc(F)c(C(=O)NS(C)(=O)=O)cc2C)cc1Cl)c1ccc(C)cc1` [Example 685, 4-(5-chloro-6-(((1R)-1-(4-methylphenyl)propyl)oxy)-3-pyridinyl)-2-fluoro-5-methyl-N-(methylsulfonyl)benzamide, 4-(5-chloro-6-(((1S)-1-(4-methylphenyl)propyl)oxy)-3-pyridinyl)-2-fluoro-5-methyl-N-(methylsulfonyl)benzamide], the IC50 was determined as 88.1 nM.
Same read-out and setting: the value for `Cc1ccc(Oc2ncc(-c3ccc(C(=O)NS(C)(=O)=O)cc3OC(F)F)cc2Cl)cc1C` [Example 459, 4-(5-chloro-6-(3,4-dimethylphenoxy)-3-pyridinyl)-3-(difluoromethoxy)-N-(methylsulfonyl)benzamide] was 95 nM.
Under “in-vitro Nav 1.7 PX data”, `Cc1cc(C(=O)NS(C)(=O)=O)c(F)cc1-c1cnc(OCC(F)F)c(Cl)c1` [Example 808, 4-(5-chloro-6-(2,2-difluoroethoxy)-3-pyridinyl)-2-fluoro-5-methyl-N-(methylsulfonyl)benzamide] yielded an IC50 of 2430 nM. In other words, the single-digit micromolar range.
`Cc1cc(C(=O)NS(C)(=O)=O)c(F)cc1-c1cnc(N2CCC[C@@H]2c2cccc(C(F)(F)F)c2)c(Cl)c1` [Example 655, 4-(5-chloro-6-((2R)-2-(3-(trifluoromethyl)phenyl)-1-pyrrolidinyl)-3-pyridinyl)-2-fluoro-5-methyl-N-(methylsulfonyl)benzamide, 4-(5-chloro-6-((2S)-2-(3-(trifluoromethyl)phenyl)-1-pyrrolidinyl)-3-pyridinyl)-2-fluoro-5-methyl-N-(methylsulfonyl)benzamide] returned an IC50 of 102 nM. In other words, the sub-micromolar range.
Turning to `CS(=O)(=O)NC(=O)c1ccc(-c2cnc(Oc3ccc4ccccc4c3)c(Cl)c2)c(OC2COC2)c1` [Example 424, 4-(5-chloro-6-(2-naphthalenyloxy)-3-pyridinyl)-N-(methylsulfonyl)-3-(3-oxetanyloxy)benzamide], the IC50 came out at 99.4 nM. This IC50 and that of the compound before are within 1.5-fold of each other.
In turn, `C[C@H](Oc1ncc(-c2ccc(C(=O)NS(C)(=O)=O)cc2OC(F)F)cc1Cl)c1ccccc1` [Example 457, 4-(5-chloro-6-((1S)-1-phenylethoxy)-3-pyridinyl)-3-(difluoromethoxy)-N-(methylsulfonyl)benzamide] came in with an IC50 of 80 nM.
For the compound `Cc1cc(C(=O)NS(C)(=O)=O)c(F)cc1-c1cnc(OC(C)(C)C)c(Cl)c1` [Example 816, 4-(6-tert-butoxy-5-chloro-3-pyridinyl)-2-fluoro-5-methyl-N-(methylsulfonyl)benzamide], the midpoint of inhibition (in-vitro Nav 1.7 PX data), the IC50, lay at 156 nM.
The same measure, in the same setting: the value for `COc1cc(C(=O)NS(C)(=O)=O)c(F)cc1-c1cnc(O[C@@H]2CC[C@H]2C)c(Cl)c1` [Example 733, 4-(5-chloro-6-(((1R,2R)-2-methylcyclobutyl)oxy)-3-pyridinyl)-2-fluoro-5-methoxy-N-(methylsulfonyl)benzamide, 4-(5-chloro-6-(((1S,2S)-2-methylcyclobutyl)oxy)-3-pyridinyl)-2-fluoro-5-methoxy-N-(methylsulfonyl)benzamide] was 220 nM.
Same read-out and setting: the value for `COc1cc(C(=O)NS(C)(=O)=O)c(F)cc1-c1cnc(NCC2CCC(C)(C)CC2)c(Cl)c1` [Example 721, 4-(5-chloro-6-(((4,4-dimethylcyclohexyl)methyl)amino)-3-pyridinyl)-2-fluoro-5-methoxy-N-(methylsulfonyl)benzamide] was 87.2 nM.
For the setting “in-vitro Nav 1.7 PX data”, `COc1cc(C(=O)NS(C)(=O)=O)c(F)cc1-c1cnc(N[C@H]2CC23CCCC3)c(Cl)c1` [Example 771, 4-(5-chloro-6-((1S)-spiro[2.4]hept-1-ylamino)-3-pyridinyl)-2-fluoro-5-methoxy-N-(methylsulfonyl)benzamide] had an IC50 of 86.8 nM.
For `Cc1cc(C(=O)NS(C)(=O)=O)c(F)cc1-c1ccc2c(c1)OC(F)(F)O2` [Example 809, 4-(2,2-difluoro-1,3-benzodioxol-5-yl)-2-fluoro-5-methyl-N-(methylsulfonyl)benzamide], the IC50 (in-vitro Nav 1.7 PX data) worked out at 647 nM.

(Values after patent US9663508B2, “Biaryl acyl-sulfonamide compounds as sodium channel inhibitors” (AMGEN INC., priority 2013, dated 2017).)
